The nature of series [1]: Single-dose pharmacokinetics in rats (oral bioavailability). Format: in vivo. Conditions: for Oral Bioavailability in Rats, % F: male Sprague-Dawley rats, ratio of dose-normalized AUC, oral vs IV; for Prodrug bioavailability in Rats, % F: dose-normalized AUC of parent (Example 1) after oral prodrug vs IV infusion of parent. Here is the method: In a study to determine oral bioavailability in male Sprague-Dawley rats, two groups of animals (N=3 per group, 300 to 350 g) are used. One group (non-fasted) receives the compound by IV infusion (over 10 minutes) via a jugular vein and one group (fasted) receives drug by oral gavage. Serial blood samples (˜0.3 mL) are collected from the jugular vein into tri-potassium ethylenediaminetetraacetic acid (K3EDTA)-containing tubes at 0.167 (for IV), 0.25, 0.5, 1, 3, 5, 7, and 24 hours, post dose and then centrifuged at 4° C. (1500 to 2000×g) to obtain plasma, which is stored at −20° C. until analysis by LC-MS/MS.
The pharmacokinetic parameters were obtained by non-compartmental analysis of plasma concentration (determined by LC/MS/MS) vs. time data (ThermoKinetica Software version 4.4.1). The peak concentration (Cmax) and time for Cmax, Tmax, were recorded directly from experimental observations. The area under the curve from time zero to the last sampling time (AUC0-t) was calculated using a combination of linear and log trapezoidal summations. The total plasma clearance (CLTp), steady-state volume of distribution (Vss), apparent elimination half-life (t½) and mean residence time (MRT) were estimated after IV administration. Estimation of T½ was made using a minimum of 3 time points with quantifiable concentrations.
For non-prodrugs, the absolute oral bioavailability F was estimated as the ratio of dose-normalized AUC values following oral and IV doses.
In case of prodrugs (e.g., Examples 2 and 5), absolute bioavailability F was estimated as the ratio of dose-normalized AUC values of parent (Example 1) upon oral administration of prodrugs (Examples 2 and 5) and IV infusion of parent (Example 1).

The test system of the next series is pCK2 motif. Nature of the series: In vivo pharmacodynamic study, pCK2 motif inhibition in SNU-C1 (colon) xenograft tumor model. Also noted: species or system mice. The conditions noted are these: for % inh. of p-CK2 at 24th hour: oral gavage, SNU-C1 (colon) xenograft in mice. On the procedure: pCK2 motif is a putative cellular substrate of CK2 with molecular weight of ˜60 kDa.
To determine extent of pCK2 motif inhibition by test compounds in vivo, SNU-C1 colon tumor cells were inoculated into female BALB/c athymic mice and propagated as subcutaneous xenografts. The dosing solutions of the compound or control were administered to mice with tumors reaching ˜500 mm by oral gavage at the indicated dose levels and schedules. Tumors were collected from control and treated mice at the indicated times and immediately frozen in liquid nitrogen. Frozen tumors were thawed on ice in 5 volumes of TTG buffer (Tris-HCl, pH 7.9, 10% glycerol, 0.02% Tween-20). Tumors were homogenized using a Qiagen TissueLyser II (3×1 min (1/30S)) in Qiagen Tissulyser tubes containing steel beads. Tumor homogenates were clarified by microcentrifugation at 13000 rpm for 10 min. Western blot analysis was performed using 60 μg of protein per lane on 4-15% BioRad SDS-PAGE gels. Blots were probed with an anti-pCK2 motif antibody (mAb #8738 Cell Signaling Technology) and anti-Actin antibody. The pCK2 motif antibody is a purified […] antibody developed by immunizing mice with a degenerate mixture of peptides corresponding to the consesnus phorylation site used by CK2. The intensity of the pCK2 motif band was measured on images obtained from the Licor Odyssey instrument. % pCK2 remaining at each dose was calculated relative to the average intensity of bands from untreated, control mouse tumors.

In a further series the target is CK2A2 (Homo sapiens (Human), UniProt P19784). Nature of the series: CK2 kinase assay (CK2A2). It is filed as biochemical. The conditions noted are these: recombinant CK2A2. On the procedure:
(§1) The effectiveness of compounds of the present invention as inhibitors of protein kinases can be readily tested by assays known to those skilled in the art. For example, in vitro protein kinase assays may be conducted with a relevant purified protein kinase and an appropriate synthetic substrate to determine the inhibitory activity of the compounds. […] Reaction mixtures were incubated at 30° C. for 1 hour, and reaction products were captured by binding to phosphocellulose (P81) filter plates. Incorporation of radioactive phosphate into the peptide substrate was determined by liquid scintillation counting. The potency of compounds in inhibiting CK2 is expressed as IC50, defined as the concentrations of compounds required to inhibit the enzymatic activity by 50%.
(§2) The inhibitory activity of the instant compounds may also be measured by recombinant CK2 holoenzyme kinase assays. The assays were performed in U-bottom 384-well plates. The final assay volume was 30 μl prepared from 15 μl additions of enzyme and substrates (fluoresceinated peptide FL-RRRADDSDDDDD-NH2 and ATP) and test compounds in assay buffer (20 mM HEPES pH 7.4, 10 mM MgCl2, 100 mM NaCl, 0.015% Brij35 and 0.25 mM DTT). The reaction was initiated by the combination of bacterially expressed, CK2 α/β or CK2 α′/β holoenzyme with substrates and test compounds. The reaction was incubated at room temperature for 60 minutes and terminated by adding 30 μl of 35 mM EDTA to each sample. The reaction mixture was analyzed on the Caliper LABCHIP® 3000 (Caliper, Hopkinton, Mass.) by electrophoretic separation of the fluorescent substrate and phosphorylated product. Inhibition data were calculated by comparison to no enzyme control reactions for 100% inhibition and vehicle-only reactions for 0% inhibition. The final concentration of reagents in the CK2 α/β assay was 25 μM ATP, 1.5 μM FL-RRRADDSDDDDD-NH2, 50 pM CK2 α/β holoenzyme, and 1.6% DMSO. The final concentration of reagents in the CK2 α′/β assay was 10 μM ATP, 1.5 μM FL-RRRADDSDDDDD-NH2, 100 pM CK2 α′/β holoenzyme, and 1.6% DMSO. Dose response curves were generated to determine the concentration required inhibiting 50% of kinase activity (IC50). Compounds were dissolved at 10 mM in dimethylsulfoxide (DMSO) and evaluated at eleven concentrations. IC50 values were derived by non-linear regression analysis.

Series [2] is described as follows: Thermodynamic equilibrium aqueous solubility assay. Conditions: for solubility at 24 h: aqueous buffer, thermodynamic from solid. It is filed as physicochemical. Here is the method:
Standards Preparation: The calibration standard was prepared by accurately weighing 0.5-0.7 mg of sample in 5 ml of methanol. If the material was not fully soluble in methanol, other solvents such as DMSO or mixed solvents were used.
The solution was sonicated and vortexed for ˜30 seconds. The vials were shaken at 300 rpm at room temperature for 24 hrs. The exact incubation time for a specific prodrug was based on the prior aqueous stability data. If the compound was stable in the buffer up to 24 hrs, then the solubility was measured after 24 hrs, otherwise kinetic solubility data was reported. The final saturated solution was then transferred to a 1.5 mL eppendorf tube and centrifuged for ˜2 min. at 10000 rpms. The supernatant from the saturated solution was transferred to a glass HPLC vial and the solubility was analyzed by HPLC using a four point calibration curve.

For a further series, the target named is CK2A1 (Homo sapiens (Human), UniProt P68400). Briefly: CK2 kinase assay (CK2A1). The conditions noted are these: recombinant CK2A1. It is filed as biochemical. Here is the method: as §1, §2
Where [3] appears, read: 50 mM potassium phosphate buffer, pH 6.5, 50 mM potassium phosphate, read-out: Solubility pH 6.5.
Where [4] appears, read: simulated gastric fluid, pH 1.0, read-out: Solubility pH 1.0.
[5] abbreviates: 50 mM sodium acetate buffer, pH 4.0, 50 mM sodium acetate, read-out: Solubility pH 4.0.

In brackets after ≈: the same amount, converted by molar mass. Read-outs that look alike come from different tables or passages of the source.

Sequence of CK2A1 (P68400 whole entry): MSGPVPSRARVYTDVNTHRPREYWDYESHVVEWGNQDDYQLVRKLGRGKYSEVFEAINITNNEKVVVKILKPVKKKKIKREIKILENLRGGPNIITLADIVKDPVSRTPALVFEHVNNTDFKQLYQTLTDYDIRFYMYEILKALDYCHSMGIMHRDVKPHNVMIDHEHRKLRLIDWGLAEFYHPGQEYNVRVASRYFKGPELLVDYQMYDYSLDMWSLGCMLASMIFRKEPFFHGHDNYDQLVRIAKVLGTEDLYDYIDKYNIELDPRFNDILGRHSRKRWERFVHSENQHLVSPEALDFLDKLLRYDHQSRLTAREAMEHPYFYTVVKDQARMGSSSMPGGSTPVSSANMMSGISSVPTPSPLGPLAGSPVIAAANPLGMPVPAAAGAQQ
Sequence of CK2A2 (P19784 whole entry): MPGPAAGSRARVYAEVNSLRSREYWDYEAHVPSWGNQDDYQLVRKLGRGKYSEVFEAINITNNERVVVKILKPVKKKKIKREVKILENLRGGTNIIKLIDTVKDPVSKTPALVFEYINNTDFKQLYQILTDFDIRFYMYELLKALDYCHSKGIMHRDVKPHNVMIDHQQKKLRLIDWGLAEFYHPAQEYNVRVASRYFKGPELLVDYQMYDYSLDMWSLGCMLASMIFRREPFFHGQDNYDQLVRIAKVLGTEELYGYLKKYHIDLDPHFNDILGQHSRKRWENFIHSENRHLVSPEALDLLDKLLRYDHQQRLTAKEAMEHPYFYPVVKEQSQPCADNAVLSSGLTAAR

On to `COC(=O)N[C@H]1CCN(c2cc(C#N)cc(Nc3nc(NC4CC4)c4ncc(C#N)n4n3)c2Cl)C[C@@H]1O` [174 (WO2014011974), reference compound], for which the “Oral Bioavailability in Rats, % F” value in series [1] is reported as 8 % F. The “% inh. of p-CK2 at 24th hour” value with pCK2 motif (40 mg/kg BID) is reported as 33%/40 mg/kg BID.

Broadly, the IC50 is the midpoint of a concentration-inhibition curve. As a reminder, the solubility is the concentration that dissolves in the medium under given conditions. Take `CCNc1nc(Nc2cc(C#N)cc(N3CCN([C@@H](C)C(N)=O)CC3)c2Cl)nn2c(C#N)cnc12` [Example 1, (S)-2-(4-(2-chloro-5-cyano-3-((7-cyano-4-(ethylamino)imidazo[2,1-f][1,2,4]triazin-2-yl)amino)phenyl)piperazin-1-yl)propanamide]: the “Oral Bioavailability in Rats, % F” value in series [1] was determined as 68 % F. In addition, the “bioavailability in rats compared to Example 174 of WO2014011974 (in words)” value in series [1] (rats, oral) is “marked improvement in bioavailability”. Further, the IC50 at CK2A2 and on CK2A1 was below 10 nM throughout. The solubility at 24 h is below 1 µg/mL in series [2] (setting [3]) and 22 µg/mL (≈ 44.5 µM) in series [2] (setting [4]). Also, the “% inh. of p-CK2 at 24th hour” value in the series with pCK2 motif (15 mg/kg BID) stood at 91%/15 mg/kg BID. Further, the “suppression of pCK2 motif levels relative to vehicle control (in words)” value with pCK2 motif (SNU-C1 xenograft in mice, up to 24 hours) is recorded as “significantly suppressed”.

`CCNc1nc(N(C(=O)OCOC(=O)Cc2ccc(OP(=O)(O)O)cc2)c2cc(C#N)cc(N3CCN([C@@H](C)C(N)=O)CC3)c2Cl)nn2c(C#N)cnc12` [Example 2, (S)-(((3-(4-(1-amino-1-oxopropan-2-yl)piperazin-1-yl)-2-chloro-5-cyanophenyl)(7-cyano-4-(ethylamino)imidazo[2,1-f][1,2,4]triazin-2-yl)carbamoyl)oxy)methyl 2-(4-(phosphonooxy)phenyl)acetate]: in series [1] (rats), the “Prodrug bioavailability in Rats, % F” value is 40 % F. The results for the IC50 at CK2A2 and at CK2A1 were 10 to 100 nM and 100 to 1000 nM, respectively. Moreover, the “solubility compared to the parent compound Example 1 (in words)” value in series [2] was “superior solubility”. In addition, the solubility at 24 h is 835 µg/mL (≈ 1070 µM) in series [2] (setting [3]), 124 µg/mL (≈ 159 µM) in series [2] (setting [5]) and 242 µg/mL (≈ 309 µM) in series [2] (setting [4]).

Regarding `CCNc1nc(N(C(=O)OCOC(=O)/C=C/C(=O)O)c2cc(C#N)cc(N3CCN([C@@H](C)C(N)=O)CC3)c2Cl)nn2c(C#N)cnc12` [Example 3, (S,E)-4-((((3-(4-(1-amino-1-oxopropan-2-yl)piperazin-1-yl)-2-chloro-5-cyanophenyl)(7-cyano-4-(ethylamino)imidazo[2,1-f][1,2,4]triazin-2-yl)carbamoyl)oxy)methoxy)-4-oxobut-2-enoic Acid], the IC50 at CK2A2 fell in the range of 10 to 100 nM; at CK2A1 it was 100 to 1000 nM.

For `CCNc1nc(N(C(=O)OCOC(=O)CC(C)(C)COP(=O)(O)O)c2cc(C#N)cc(N3CCN([C@@H](C)C(N)=O)CC3)c2Cl)nn2c(C#N)cnc12` [Example 4, (S)-(((3-(4-(1-amino-1-oxopropan-2-yl)piperazin-1-yl)-2-chloro-5-cyanophenyl)(7-cyano-4-(ethylamino)imidazo[2,1-f][1,2,4]triazin-2-yl)carbamoyl)oxy)methyl 3,3-dimethyl-4-(phosphonooxy)butanoate], the IC50 at CK2A2 was below 10 nM; on CK2A1, 10 to 100 nM.

Turning to `CCNc1nc(N(C(=O)OCOC(=O)CC(C)(C)c2c(C)cc(C)cc2OP(=O)(O)O)c2cc(C#N)cc(N3CCN([C@@H](C)C(N)=O)CC3)c2Cl)nn2c(C#N)cnc12` [Example 5, (S)-(((3-(4-(1-amino-1-oxopropan-2-yl)piperazin-1-yl)-2-chloro-5-cyanophenyl)(7-cyano-4-(ethylamino)imidazo[2,1-f][1,2,4]triazin-2-yl)carbamoyl)oxy)methyl 3-(2,4-dimethyl-6-(phosphonooxy)phenyl)-3-methylbutanoate], the “Prodrug bioavailability in Rats, % F” value in series [1] (rats) came out at 88 % F. Also, the values for the IC50 on CK2A2 and on CK2A1 were 10 to 100 nM and 100 to 1000 nM, respectively. The “solubility compared to the parent compound Example 1 (in words)” value in series [2] was “superior solubility”. For the same compound, the results for the solubility at 24 h in series [2] (setting [3]), in series [2] (setting [5]) and in series [2] (setting [4]) were 1340 µg/mL (≈ 1580 µM), 160 µg/mL (≈ 188 µM) and 253 µg/mL (≈ 297 µM), respectively.

The values are drawn from patent publication US10550125B2, “Prodrugs of imidazotriazine compounds as CK2 inhibitors” (BRISTOL-MYERS SQUIBB COMPANY, priority 2015, dated 2020).
